One test deals with T1, human STAT6/pIL-4Rα (Homo sapiens, UniProt P42226).
T1 construct: histidine tag
T1 sequence (P42226 123-658): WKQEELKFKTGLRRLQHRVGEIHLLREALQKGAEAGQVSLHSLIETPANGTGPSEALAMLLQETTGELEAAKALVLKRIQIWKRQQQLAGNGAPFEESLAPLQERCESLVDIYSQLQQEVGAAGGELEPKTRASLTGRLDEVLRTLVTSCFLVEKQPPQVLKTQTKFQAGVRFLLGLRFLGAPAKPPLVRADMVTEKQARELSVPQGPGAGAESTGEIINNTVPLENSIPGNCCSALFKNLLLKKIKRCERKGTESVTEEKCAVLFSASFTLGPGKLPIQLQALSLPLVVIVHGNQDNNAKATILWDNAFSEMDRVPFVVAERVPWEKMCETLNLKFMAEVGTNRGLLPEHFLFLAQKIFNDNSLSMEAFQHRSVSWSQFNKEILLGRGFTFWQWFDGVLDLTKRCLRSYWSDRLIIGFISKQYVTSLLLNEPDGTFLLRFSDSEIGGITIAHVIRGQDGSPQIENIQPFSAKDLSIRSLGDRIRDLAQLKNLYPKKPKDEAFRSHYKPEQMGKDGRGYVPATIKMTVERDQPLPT
Kind of test: Binding inhibitory activity between human STAT6/pIL-4Rα by fluorescence polarization method. Particulars: rhSTAT6 (123-658) / FAM-pIL-4Rα peptide. In short, it runs like this: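 His-tagged human STAT6 (residues 123–658, E. coli-expressed) was preincubated with compound for 30 min at RT in the dark, in buffer e.g. 50 mM NaCl, 10 mM HEPES pH 7.0, 1 mM DTT, 1 mM EDTA, 0.01% NP-40. FAM-pIL-4Rα peptide was then added for 30 min. Fluorescence polarisation was read at 485/535 nm, with IC50 interpolated linearly between two points flanking 50%.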

The subject of another test is human STAT6. Briefly: Human STAT6 dependent reporter activity (IL-4 stimulated STAT6 reporter assay using STAT6-HEK293 cells). The test is classed as cell-based. Particulars: Homo sapiens, IL-4 stimulation, luciferase activity, read-out: Inhibition rate (%); for inhibition at 0.1 µM: compound 0.1 μmol/L; for inhibition at 1 µM: compound 1 μmol/L.

On human STAT6/pIL-4Rα, `CCn1c(-c2ccc(-n3c(C)nn(C)c3=O)cc2)cc2nc(C(F)(F)F)cc(C(=O)Nc3ccc(F)c(C(N)=O)c3)c21` [Ex. 74] had an IC50 of 0.48 µM. For the same compound, in the test with human STAT6, the inhibition at 0.1 µM is 21% and the inhibition at 1 µM amounted to 91%.
In the case of `CCn1c(-c2ccc(-n3c(C)nn(C)c3=O)cc2)cc2nccc(C(=O)Nc3cccc(C(N)=O)c3F)c21` [Ex. 59], on human STAT6/pIL-4Rα, the IC50 worked out at 0.39 µM. Moreover, in the test on human STAT6, the inhibition at 0.1 µM amounted to 83% and the inhibition at 1 µM was determined as 99%.
On human STAT6/pIL-4Rα, `CCn1c(-c2ccc(-n3c(C)nn(C)c3=O)cc2)cc2cncc(C(=O)Nc3ccc(F)c(C(N)=O)c3)c21` [Ex. 216] yielded an IC50 of 0.43 µM. Further, in the test with human STAT6, the inhibition at 0.1 µM is 7% and the inhibition at 1 µM was found to be 42%.
`CCn1c(-c2ccc(-n3c(C)nn(C)c3=O)cc2)cc2cc(C(F)(F)F)cc(C(=O)Nc3cccc(-c4ncc[nH]4)c3)c21` [Ex. 118] came in with an IC50 on human STAT6/pIL-4Rα of 0.23 µM. In addition, the inhibition at 0.1 µM in the test on human STAT6 came to 95%.
The matching figures for `CCn1c(-c2ccc(-n3c(C)nn(C)c3=O)cc2)cc2ccnc(C(=O)Nc3ccc(F)c(C(=O)Nc4ccc(C)n(C)c4=O)c3)c21` [Ex. 195]: 0.29 µM and 56%.
For `CCn1c(-c2ccc(-n3c(C)nn(C)c3=O)nn2)cc2cc(C(F)(F)F)cc(C(=O)Nc3cccc(C(N)=O)c3F)c21` [Ex. 127], the IC50 on human STAT6/pIL-4Rα is 0.25 µM. Also, in the test with human STAT6, the inhibition at 0.1 µM worked out at 38% and the inhibition at 1 µM came out at 99%.
For `COCCn1c(-c2ccc(-n3c(C)nn(C)c3=O)cc2)cc2cc(C(F)(F)F)cc(C(=O)Nc3cccc(CO)c3)c21` [Ex. 115], in that order: 0.43 µM, 54% and 95%.
For `CCn1c(-c2ccc(-n3c(C)nn(C)c3=O)cc2)cc2cc(C#N)cc(C(=O)Nc3ccc(F)c(C(N)=O)c3)c21` [Ex. 50], in that order: 0.56 µM, 42% and 99%.
For `Cc1nn(C)c(=O)n1-c1ccc(-c2cc3ccnc(C(=O)Nc4cccc(C(N)=O)c4F)c3n2CCC(F)F)cc1` [Ex. 112], in that order: 0.4 µM, 38% and 93%.
Consider `CCn1c(-c2ccc(-n3c(C)nn(C)c3=O)nc2)cc2cccc(C(=O)Nc3ccc(F)c(C(N)=O)c3)c21` [Ex. 151], for which the IC50 at human STAT6/pIL-4Rα turned out to be 0.61 µM. Also, in the test on human STAT6, the inhibition at 0.1 µM was found to be 26% and the inhibition at 1 µM was 77%.
As for `COCCn1c(-c2ccc(-n3c(C)nn(C)c3=O)cc2)cc2cc(C(F)(F)F)cc(C(=O)Nc3ccc(F)c(C(N)=O)c3)c21` [Ex. 16], on human STAT6/pIL-4Rα, the IC50 came out at 0.24 µM. In the test with human STAT6, the inhibition at 0.1 µM stood at 72% and the inhibition at 1 µM was 100%.
Take `COCCn1c(-c2ccc(-n3c(C)nn(C)c3=O)cc2)cc2cc(C(F)(F)F)cc(C(=O)Nc3cccc(C(=O)Nc4cccn(C)c4=O)c3)c21` [Ex. 175]: the IC50 at human STAT6/pIL-4Rα was 0.4 µM. Also, the inhibition at 0.1 µM with human STAT6 stood at 65%.
The compound `CCn1c(-c2ccc(-n3c(C)nn(C)c3=O)nc2)cc2cc(C(F)(F)F)cc(C(=O)Nc3ccc(F)c(C(N)=O)c3)c21` [Ex. 20] came in with an IC50 at human STAT6/pIL-4Rα of 0.66 µM. Further, in the test on human STAT6, the inhibition at 0.1 µM is 50% and the inhibition at 1 µM worked out at 98%.
The compound `Cc1nn(C)c(=O)n1-c1ccc(-c2cc3ccnc(C(=O)Nc4cccc(C(N)=O)c4)c3n2C)cc1` [Ex. 107] had an IC50 on human STAT6/pIL-4Rα of 0.29 µM. The inhibition at 0.1 µM in the test on human STAT6 turned out to be 67%.
At human STAT6/pIL-4Rα, `COCCn1c(-c2ccc(-n3c(C)nn(C)c3=O)cc2)cc2cc(C(F)(F)F)cc(C(=O)Nc3cccc(C(=O)Nc4cccc(OC)n4)c3)c21` [Ex. 173] yielded a 50% inhibitory concentration (IC50) of 0.34 µM. For the same compound, in the test on human STAT6, the inhibition at 0.1 µM is 43% and the inhibition at 1 µM came to 100%.
In turn, `Cc1nn(C)c(=O)n1-c1ccc(-c2cc3ccnc(C(=O)Nc4cccc(C(=O)Nc5cccn(C)c5=O)c4)c3n2CC2CC2)cc1` [Ex. 199] had an IC50 on human STAT6/pIL-4Rα of 0.27 µM. In the test on human STAT6, the inhibition at 0.1 µM was 67%.
As to `CCn1c(-c2ccc(-n3c(C)nn(C)c3=O)cc2)cc2cc(C(F)(F)F)nc(C(=O)Nc3cccc(C(N)=O)c3F)c21` [Ex. 83], at human STAT6/pIL-4Rα, the IC50 was 0.37 µM. Moreover, in the test on human STAT6, the inhibition at 0.1 µM is 68% and the inhibition at 1 µM was found to be 98%.
The matching figures for `Cc1nn(C)c(=O)n1-c1ccc(-c2cc3cc(C(F)(F)F)cc(C(=O)Nc4ccc(F)c(C(N)=O)c4)c3n2CC2(C#N)CC2)cc1` [Ex. 124]: 0.45 µM, 57% and 99%.
Turning to `COCCn1c(-c2ccc(-n3c(C)nn(C)c3=O)cc2)cc2cc(C(F)(F)F)cc(C(=O)Nc3cccc(C(=O)Nc4cc(C#N)n(C)n4)c3)c21` [Ex. 179], on human STAT6/pIL-4Rα, the IC50 came out at 0.32 µM. Moreover, the inhibition at 0.1 µM with human STAT6 was 93%.
`CCn1c(-c2ccc(N3CCOCC3=O)cc2)cc2cc(C(F)(F)F)cc(C(=O)Nc3cccc(C(N)=O)c3F)c21` [Ex. 66] gave an IC50 at human STAT6/pIL-4Rα of 0.32 µM. In addition, in the test on human STAT6, the inhibition at 0.1 µM is 58% and the inhibition at 1 µM was 99%.
On to `CC1CC(C)N(c2ccc(-c3cc4ccnc(C(=O)Nc5cccc(C(N)=O)c5F)c4n3CC3(C#N)CC3)cc2)C1=O` (single isomer, unassigned) [Ex. 223], for which, on human STAT6/pIL-4Rα, the half-inhibitory concentration (IC50) was determined as 0.32 µM. In the test on human STAT6, the inhibition at 0.1 µM was 67%.
Consider `CCn1c(-c2ccc(-n3c(C)nn(C)c3=O)cc2)cc2ccnc(C(=O)Nc3ccc(F)c(C(=O)NCC#N)c3)c21` [Ex. 168], for which the IC50 at human STAT6/pIL-4Rα was 0.35 µM. For the same compound, in the test with human STAT6, the inhibition at 0.1 µM worked out at 60% and the inhibition at 1 µM is 99%.
`CNC(=O)c1cccc(NC(=O)c2cc(C(F)(F)F)cc3cc(-c4ccc(-n5cnn(C)c5=O)cc4)n(CCOC)c23)c1` [Ex. 43] displayed an IC50 on human STAT6/pIL-4Rα of 0.25 µM. Besides, in the test with human STAT6, the inhibition at 0.1 µM worked out at 93% and the inhibition at 1 µM was determined as 100%.
The matching figures for `COCCn1c(-c2ccc(-n3c(C)nn(C)c3=O)cc2)cc2cc(C(F)(F)F)cc(C(=O)Nc3cccc(C(=O)Nc4ccc(C)nn4)c3)c21` [Ex. 182]: 0.35 µM, 52% and 100%.
The compound `CCn1c(-c2ccc(-n3c(C)nn(C)c3=O)cc2)cc2ccnc(C(=O)Nc3cccc(C(=O)NCC#N)c3)c21` [Ex. 189] returned an IC50 at human STAT6/pIL-4Rα of 0.38 µM. In the test with human STAT6, the inhibition at 0.1 µM was 72% and the inhibition at 1 µM worked out at 97%.
`CCn1c(-c2ccc(-n3c(C)nn(C)c3=O)cn2)cc2cc(C(F)(F)F)cc(C(=O)Nc3ccc(F)c(C(N)=O)c3)c21` [Ex. 61] gave an IC50 on human STAT6/pIL-4Rα of 0.47 µM. In addition, in the test with human STAT6, the inhibition at 0.1 µM came to 93% and the inhibition at 1 µM came out at 100%.
Take `CCn1c(-c2ccc(-n3c(C)nn(C)c3=O)cc2)cc2ccnc(C(=O)Nc3ccc(F)c(C(=O)Nc4cncn(C)c4=O)c3)c21` [Ex. 192]: the IC50 on human STAT6/pIL-4Rα came out at 0.34 µM. Moreover, in the test on human STAT6, the inhibition at 0.1 µM came to 71%.
For `Cc1nn(C)c(=O)n1-c1ccc(-c2cc3ccnc(C(=O)Nc4cccc(C(N)=O)c4F)c3n2C)cc1` [Ex. 109], in that order: 0.43 µM and 62%.
Compound `CCn1c(-c2ccc(C(=O)N(C)C)cc2)cc2ccnc(C(=O)Nc3ccc(F)c(C(=O)NCC#N)c3)c21` [Ex. 148] showed an IC50 on human STAT6/pIL-4Rα of 0.33 µM. The inhibition at 0.1 µM in the test on human STAT6 was 86%.
For `Cc1nn(C)c(=O)n1-c1ccc(-c2cc3cccc(C(=O)Nc4ccc(F)c(C(N)=O)c4)c3n2CC2CC2)cc1` [Ex. 34], the IC50 at human STAT6/pIL-4Rα stood at 0.61 µM. For the same compound, in the test on human STAT6, the inhibition at 0.1 µM stood at 39% and the inhibition at 1 µM turned out to be 96%.
For `CCn1c(-c2ccc(-n3c(C)nn(C)c3=O)cc2)cc2ccnc(C(=O)Nc3cccc(C(=O)Nc4c(C)ccn(C)c4=O)c3)c21` [Ex. 188], in that order: 0.32 µM, 44% and 97%.
The matching figures for `CCn1c(-c2ccc(-n3c(C)nn(C)c3=O)cc2)cc2nccc(C(=O)Nc3ccc(F)c(C(N)=O)c3)c21` [Ex. 57]: 0.49 µM, 89% and 100%.
At human STAT6/pIL-4Rα, `CCn1c(-c2ccc(-n3c(C)nn(C)c3=O)cc2)cc2cc(Cl)cc(C(=O)Nc3ccc(F)c(C(N)=O)c3)c21` [Ex. 56] yielded an IC50 of 0.27 µM. Also, in the test on human STAT6, the inhibition at 0.1 µM was 94% and the inhibition at 1 µM is 100%.
On to `CCn1c(-c2ccc(-n3c(C)nn(C)c3=O)cc2)cc2ccnc(C(=O)Nc3cccc(C(=O)Nc4cc(Cl)n(C)n4)c3)c21` [Ex. 198], for which the IC50 on human STAT6/pIL-4Rα came out at 0.41 µM. In addition, the inhibition at 0.1 µM in the test with human STAT6 came out at 96%.
In the case of `CCn1c(-c2ccc(-n3c(C)nn(C)c3=O)cc2)cc2ccnc(C(=O)Nc3ccc(F)c(C(=O)Nc4cc(C)cn(C)c4=O)c3)c21` [Ex. 194], the IC50 on human STAT6/pIL-4Rα was determined as 0.42 µM. For the same compound, in the test with human STAT6, the inhibition at 0.1 µM was 68% and the inhibition at 1 µM amounted to 98%.
The matching figures for `CCn1c(-c2ccc(-n3ncn(C)c3=O)cc2)cc2cc(C(F)(F)F)cc(C(=O)Nc3cccc(C(N)=O)c3)c21` [Ex. 48]: 0.34 µM, 84% and 100%.

Source of the values: patent US20260092054A1, “FUSED RING COMPOUND AND PHARMACEUTICAL CONTAINING SAME” (KAKEN PHARMACEUTICAL CO., LTD., priority 2022, published 2026).
